Results reported in US10294248B2, “Beta-lactamase inhibitors” (VenatoRx Pharmaceuticals, Inc., priority 2013, dated 2019).

Legend:
[1] = target: T1, OXA-1 β-lactamase (Class D oxacillinase) (Escherichia coli, UniProt P13661); assay: β-Lactamase inhibition, OXA-1; type: biochemical; conditions: nitrocefin 100 μM, 486 nm; 15 min preincubation at 37° C., PBS pH 7.4
T1 construct: made in house; host or cells: E. coli BL21(DE3)
Outline: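 Compounds are mixed with purified, untagged recombinant β-lactamase and held 15 min at 37 °C. Substrate is then added: nitrocefin (100 μM final) for OXA-1, imipenem for KPC-2, cefotaxime for SHV-5. Absorbance is followed immediately, and percent inhibition per concentration gives the IC50.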

[2] = tested on: K. pneumoniae 156319 expressing KPC-3; assay: Broth microdilution MIC, K. pneumoniae 156319 KPC-3; type: cell-based; conditions: fixed 4 μg/mL meropenem; CAMHB, 16-20 hours at 37° C.
Outline: (§1)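 Following CLSI broth microdilution, β-lactamase-producing strains grown 3–5 h were exposed in CAMHB to 2-fold dilutions of test compound (32 to 0.25 μg/mL final). A static 4 μg/mL β-lactam overlay was added. After 16–20 h at 37° C, MIC was scored by eye.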

[3] = target: T2, SHV-5 β-lactamase (Class A ESBL) (Klebsiella pneumoniae, UniProt P0A3M1); assay: β-Lactamase inhibition, SHV-5; type: biochemical
T2 construct: made in house; host or cells: E. coli BL21(DE3)
T2 sequence (P0A3M1 22-286): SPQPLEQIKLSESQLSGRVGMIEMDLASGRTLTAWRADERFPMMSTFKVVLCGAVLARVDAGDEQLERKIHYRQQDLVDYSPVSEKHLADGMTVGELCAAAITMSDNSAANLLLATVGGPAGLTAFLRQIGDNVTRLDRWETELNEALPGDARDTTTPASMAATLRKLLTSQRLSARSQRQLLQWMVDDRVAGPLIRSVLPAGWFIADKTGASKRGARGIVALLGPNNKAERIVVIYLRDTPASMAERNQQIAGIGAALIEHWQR
Outline: (§2)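 IC50 is the inhibitor level cutting initial substrate hydrolysis rate by 50% relative to no-inhibitor controls, after 15 min enzyme–inhibitor preincubation at 37 °C. KPC-2 read with imipenem at 300 nm, SHV-5 with cefotaxime at 260 nm; enzymes were untagged, E. coli-expressed, chromatographically purified.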

[4] = target: T3, VIM-2 metallo-β-lactamase (Class B) (Pseudomonas aeruginosa, UniProt Q9K2N0); assay: β-Lactamase inhibition, VIM-2; type: biochemical; conditions: nitrocefin 100 μM, 486 nm; 15 min preincubation at 37° C., PBS pH 7.4
T3 construct: made in house; host or cells: E. coli BL21(DE3)
Outline: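 Nitrocefin hydrolysis (100 μM final, A486 read for 10 min) by purified VIM-2 after a 15-min, 37° C enzyme–inhibitor preincubation. IC50 is the concentration halving initial hydrolysis rate, derived from percent inhibition against no-inhibitor wells.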

[5] = tested on: S. aureus MSSA-7 producing penicillinase PC-1; assay: Broth microdilution MIC, S. aureus MSSA-7 PC-1; type: cell-based; conditions: fixed 4 μg/mL piperacillin; CAMHB, 16-20 hours at 37° C.
Outline: as §1

[6] = target: T4, KPC-2 β-lactamase (Class A carbapenemase) (Klebsiella pneumoniae, UniProt Q9F663); assay: β-Lactamase inhibition, KPC-2; type: biochemical; conditions: imipenem substrate, 300 nm; 15 min preincubation at 37° C., PBS pH 7.4
T4 construct: made in house; host or cells: E. coli BL21(DE3)
T4 sequence (Q9F663 25-293, looked up): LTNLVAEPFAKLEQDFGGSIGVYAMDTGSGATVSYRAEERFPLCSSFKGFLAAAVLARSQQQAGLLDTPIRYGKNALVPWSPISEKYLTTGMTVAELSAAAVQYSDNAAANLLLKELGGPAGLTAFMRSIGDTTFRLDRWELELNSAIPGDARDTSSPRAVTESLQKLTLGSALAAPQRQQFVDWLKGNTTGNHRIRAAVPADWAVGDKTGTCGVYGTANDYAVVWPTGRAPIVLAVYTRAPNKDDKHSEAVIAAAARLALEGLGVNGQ
Outline: as §2

[7] = tested on: E. cloacae 144200 expressing Class C P99 AmpC; assay: Broth microdilution MIC, E. cloacae 144200 p99 AmpC; type: cell-based; conditions: fixed 4 μg/mL ceftazidime; CAMHB, 16-20 hours at 37° C.
Outline: as §1

[8] = tested on: P. aeruginosa Ps296 expressing VIM-2; assay: Broth microdilution MIC, P. aeruginosa Ps296 VIM-2; type: cell-based; conditions: fixed 4 μg/mL meropenem; CAMHB, 16-20 hours at 37° C.
Outline: as §1

[9] = tested on: E. coli ESBL4 expressing CTX-M-15; assay: Broth microdilution MIC, E. coli ESBL4 CTX-M-15; type: cell-based; conditions: fixed 4 μg/mL ceftazidime; CAMHB, 16-20 hours at 37° C.
Outline: as §1

[10] = target: T5, p99 AmpC β-lactamase (Class C) (Enterobacter cloacae, UniProt P05364); assay: β-Lactamase inhibition, p99 AmpC; type: biochemical
T5 construct: made in house; host or cells: E. coli BL21(DE3)
T5 sequence (P05364 21-381): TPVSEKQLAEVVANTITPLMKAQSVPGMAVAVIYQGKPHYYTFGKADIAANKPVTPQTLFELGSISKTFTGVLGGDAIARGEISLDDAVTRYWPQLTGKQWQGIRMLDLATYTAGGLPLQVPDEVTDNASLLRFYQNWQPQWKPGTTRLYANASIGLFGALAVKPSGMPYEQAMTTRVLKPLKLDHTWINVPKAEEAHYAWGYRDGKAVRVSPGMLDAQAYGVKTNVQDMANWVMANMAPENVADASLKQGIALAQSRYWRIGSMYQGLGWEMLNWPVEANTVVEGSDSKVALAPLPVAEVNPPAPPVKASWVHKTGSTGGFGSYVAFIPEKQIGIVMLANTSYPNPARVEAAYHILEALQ

[11] = tested on: K. pneumoniae A-1797 expressing KPC-2 and VIM-4; assay: Broth microdilution MIC, K. pneumoniae A-1797 KPC-2/VIM-4; type: cell-based; conditions: fixed 4 μg/mL meropenem; CAMHB, 16-20 hours at 37° C.
Outline: as §1

T1 sequence (P13661 26-276): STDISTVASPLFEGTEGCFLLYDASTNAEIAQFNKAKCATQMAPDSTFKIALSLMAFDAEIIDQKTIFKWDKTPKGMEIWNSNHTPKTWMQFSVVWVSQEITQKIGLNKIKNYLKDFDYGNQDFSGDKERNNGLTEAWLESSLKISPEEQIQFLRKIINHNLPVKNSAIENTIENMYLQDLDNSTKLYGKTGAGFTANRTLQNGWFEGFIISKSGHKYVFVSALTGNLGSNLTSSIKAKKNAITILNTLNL

Row | SMILES | IC50 [1] [nM] | MIC of example compound in presence of fixed β-lactam: Fixed Mero, K. P. 156319 KPC-3 [2] | IC50 [3] [nM] | IC50 [4] [nM] | MIC of example compound in presence of fixed β-lactam: Fixed Pip, S. aureus MSSA-7 PC-1 [5] | IC50 [6] [nM] | MIC of example compound in presence of fixed β-lactam: Fixed CAZ, E. cl. 144200 p99 AmpC [7] | MIC of example compound in presence of fixed β-lactam: Fixed Mero, P. aerug. Ps296 VIM-2 [8] | MIC of example compound in presence of fixed β-lactam: Fixed CAZ, E. coli ESBL4 CTX-M-15 [9] | IC50 [10] [nM] | MIC of example compound in presence of fixed β-lactam: Fixed Mero, K. P. A-1797 KPC-2 VIM-4 [11]
1 | NCCN1CCC(CCC(=O)N[C@H]2Cc3cccc(C(=O)O)c3OB2O)CC1 [Example 31, 3-{3-[1-(2-Amino-ethyl)-piperidin-4-yl]-propionylamino}-2-hydroxy-3,4-dihydro-2H-benzo[e][1,2]oxaborinine-8-carboxylic acid] | < 100 | C (the MIC in the presence of <4 μg/mL of a β-lactamase inhibitor) | 100 to 1000 | 1000 to 10000 | C (the MIC in the presence of <4 μg/mL of a β-lactamase inhibitor) | < 100 | C (the MIC in the presence of <4 μg/mL of a β-lactamase inhibitor) | C (the MIC in the presence of <4 μg/mL of a β-lactamase inhibitor) | C (the MIC in the presence of <4 μg/mL of a β-lactamase inhibitor) | < 100 | B (the MIC in the presence of between 8 and 32 μg/mL of a β-lactamase inhibitor)
2 | O=C(CC1CCNCC1)N[C@H]1Cc2cccc(C(=O)O)c2OB1O [Example 32, 2-Hydroxy-3-(2-piperidin-4-yl-acetylamino)-3,4-dihydro-2H-benzo[e][1,2]oxaborinine-8-carboxylic acid] | 100 to 1000 | A (an MIC of the fixed β-lactam antibiotic in the presence of >32 μg/mL of a β-lactamase inhibitor) | 10000 to 100000 | 10000 to 100000 | C (the MIC in the presence of <4 μg/mL of a β-lactamase inhibitor) | 100 to 1000 | C (the MIC in the presence of <4 μg/mL of a β-lactamase inhibitor) | A (an MIC of the fixed β-lactam antibiotic in the presence of >32 μg/mL of a β-lactamase inhibitor) | C (the MIC in the presence of <4 μg/mL of a β-lactamase inhibitor) | < 100 | A (an MIC of the fixed β-lactam antibiotic in the presence of >32 μg/mL of a β-lactamase inhibitor)
3 | N=C(N)NCCN1CCC(CCC(=O)N[C@H]2Cc3cccc(C(=O)O)c3OB2O)CC1 [Example 34, 3-{3-[1-(2-Guanidino-ethyl)-piperidin-4-yl]-propionylamino}-2-hydroxy-3,4-dihydro-2H-benzo[e][1,2]oxaborinine-8-carboxylic acid] | 100 to 1000 | A (an MIC of the fixed β-lactam antibiotic in the presence of >32 μg/mL of a β-lactamase inhibitor) | < 100 | 10000 to 100000 | C (the MIC in the presence of <4 μg/mL of a β-lactamase inhibitor) | 100 to 1000 | C (the MIC in the presence of <4 μg/mL of a β-lactamase inhibitor) | A (an MIC of the fixed β-lactam antibiotic in the presence of >32 μg/mL of a β-lactamase inhibitor) | C (the MIC in the presence of <4 μg/mL of a β-lactamase inhibitor) | 100 to 1000 | A (an MIC of the fixed β-lactam antibiotic in the presence of >32 μg/mL of a β-lactamase inhibitor)
4 | N#CCN1CCC(CC(=O)N[C@H]2Cc3cccc(C(=O)O)c3OB2O)CC1 [Example 35, 3-[2-(1-Cyanomethyl-piperidin-4-yl)-acetylamino]-2-hydroxy-3,4-dihydro-2H-benzo[e][1,2]oxaborinine-8-carboxylic acid] | 100 to 1000 | B (the MIC in the presence of between 8 and 32 μg/mL of a β-lactamase inhibitor) | 100 to 1000 | 10000 to 100000 | C (the MIC in the presence of <4 μg/mL of a β-lactamase inhibitor) | 100 to 1000 | C (the MIC in the presence of <4 μg/mL of a β-lactamase inhibitor) | A (an MIC of the fixed β-lactam antibiotic in the presence of >32 μg/mL of a β-lactamase inhibitor) | C (the MIC in the presence of <4 μg/mL of a β-lactamase inhibitor) | 100 to 1000 | B (the MIC in the presence of between 8 and 32 μg/mL of a β-lactamase inhibitor)
5 | NCCN1CCN(CC(=O)N[C@H]2Cc3cccc(C(=O)O)c3OB2O)C(=O)C1 [Example 36, 3-{2-[4-(2-Amino-ethyl)-2-oxo-piperazin-1-yl]-acetylamino}-2-hydroxy-3,4-dihydro-2H-benzo[e][1,2]oxaborinine-8-carboxylic acid] | < 100 | B (the MIC in the presence of between 8 and 32 μg/mL of a β-lactamase inhibitor) | < 100 | 1000 to 10000 | C (the MIC in the presence of <4 μg/mL of a β-lactamase inhibitor) | 100 to 1000 | C (the MIC in the presence of <4 μg/mL of a β-lactamase inhibitor) | B (the MIC in the presence of between 8 and 32 μg/mL of a β-lactamase inhibitor) | C (the MIC in the presence of <4 μg/mL of a β-lactamase inhibitor) | < 100 | B (the MIC in the presence of between 8 and 32 μg/mL of a β-lactamase inhibitor)
6 | N=C(N)NCC1CCCN(CC(=O)N[C@H]2Cc3cccc(C(=O)O)c3OB2O)C1 (stereo partly drawn) [Example 37, 3-[2-(3-Guanidinomethyl-piperidin-1-yl)-acetylamino]-2-hydroxy-3,4-dihydro-2H-benzo[e][1,2]oxaborinine-8-carboxylic acid] | 100 to 1000 | C (the MIC in the presence of <4 μg/mL of a β-lactamase inhibitor) | 100 to 1000 | 100 to 1000 | C (the MIC in the presence of <4 μg/mL of a β-lactamase inhibitor) | 100 to 1000 | C (the MIC in the presence of <4 μg/mL of a β-lactamase inhibitor) | A (an MIC of the fixed β-lactam antibiotic in the presence of >32 μg/mL of a β-lactamase inhibitor) | C (the MIC in the presence of <4 μg/mL of a β-lactamase inhibitor) | < 100 | B (the MIC in the presence of between 8 and 32 μg/mL of a β-lactamase inhibitor)
